One assay addresses T1, CD80-Ig (Homo sapiens, UniProt P33681).
T1 construct: extracellular domain of CD80 fused with the constant region of mouse IgG1 heavy chain
The assay is described as follows: Direct kinetic analysis of CD28 peptide binding to immobilized CD80-Ig by surface plasmon resonance (BIACORE). The settings on record: for maximum response units obtained for binding to CD80-Ig: SPR direct binding; for kd: direct binding; for kon: pH 7.4, direct binding, read-out: ka. The procedure: Binding experiments were performed by surface plasmon resonance (SPR) on an instrument sold under the trademark BIACORE™ from Pharmacia Biosensor (Uppasala, Sweden).
CD80-Ig (extracellular domain of CD80 fused with the constant region of mouse IgG1 heavy chain) at 35 μg/ml in 10 mM sodium acetate buffer, pH 4.2, was coupled to a research grade CM 5 sensor chip using a standard amine coupling procedure with the following modifications (38). To reduce the immobilization level of the ligand, the surface was activated for 3 (instead of 7) minutes with N-hydroxysuccinamide and […]. […] Following coupling, noncovalently bound ligand was removed by washing twice with 5 mM NaOH.
The analytes were also injected at the same concentration and injection times over an empty flow cell with nothing immobilized.
Data analysis was performed with BIAEVALUATION™ software version 2.1(Pharmacia Biosensor AB). […] Prior to kinetic analysis, data were adjusted to zero baseline level by subtracting the background responses obtained by injection of the analytes through a control flow cell with no ligand immobilized. First, the dissociation rate constant, kd, (units: s^−1) was determined, by fitting experimental data from the buffer flow part of the sensogram to the equation R(t)=R1*e^−kd*(t^0^−t^1^) (1) where t0 is the injection time, R1 is the response level at the start of dissociation time t1 and kd is the dissociation rate constant.
The kd value obtained was used as a constant during the analysis of the injection phase data. Binding data above the noise level was selected by converting the sensogram to a plot of the logarithm of the binding rate vs time (dR/dt vs. time). The ka was determined by nonlinear curve fitting of the following equation R(t)=Req*{1−e^−(k^a^*C+k^d^)*(t) (2) where R(t) is the response at time t, Req is the steady state response level, ka is the association rate constant (units: M^−1s^−1), kd is the dissociation rate constant and C is the concentration of the injected peptide analyte. An offset was added to account for the refractive index differences between the analyte and the running buffer.
After analyzing sensograms obtained from injections of increasing concentrations of peptide analytes or CD28-Ig, the experimental data was analyzed using the BIAsimulation software 2.1. A plot of the logarithm of (dR/dt) against time was calculated from the sensograms, and then the slopes at different concentrations were plotted against the concentrations of the peptide analyte. Different angles obtained of the linear lines represent the variation of affinities, which gives the association rate constant (ka) from the equation ln dR/dt=ln(kaCR max)−KaC+kd)t (4) where dR/dt is the rate of change of the SPR signal, C is the concentration of the analyte, Rmax is the maximum analyte binding capacity in RU and R is the SPR signal in RU at time t. The dissociation rate constant is obtained from the equation Kd=kd/ka (5)

For assay [1], the system named is CD4+ LNC bearing Vα4 Vβ8.2 TCR. The assay is described as follows: IL-2 ELISPOT of antigen-stimulated CD4+ lymph node cells in vitro. The assay is classed as cell-based, mouse. The arrangement: frequency of IL-2 secreting cells (in words): dose or concentration left out as unconfirmed. The settings on record: for number of IL-2 secreting NAc1-11 responders (in words): 75 μM and 100 μM peptide, p<0.05; for frequency of IL-2 secreting cells (in words): compared to untreated cells. The procedure:
Augmentation of T cell proliferation following CD28 ligation is a result of its ability to increase the synthesis of IL-2. To determine whether the observed reduction in proliferation is reflected in the IL-2 secretion, the ELISPOT assay was performed.
Ninety-six well unifilter plates (Polyfiltronics, Rockland, Md.) were coated overnight at 4° C. with rat anti-mouse IL-2 (Clone JES6-1A12) (Pharmingen, Calif.) at 4 μg/ml. The plates were then washed 4× with sterile PBS and blocked with 1% BSA in DMEM for 2 h at room temperature. Subsequently, isolated single cell suspensions of CD4+ LNC (5×10^6 cells/ml) and splenocytes (10×10^6 cells/ml) were added with the antigens and CD28 peptides under the conditions as specified for the proliferation assays. After 24 h of culture in the incubator, the cells were removed by washing 3× with PBS and 4× with PBS containing Tween (1:2000) (PBST). Then biotinylated anti mouse-IL-2 (Clone JES6-5H4) (Pharmingen, Calif.) 2 μg/ml was added and incubated at 4° C. overnight. After washing 3× with PBST and 3× with PBS, goat anti-biotin antibody conjugated to alkaline phosphatase (Vector Laboratories Inc, Burlingame, Calif.) diluted to 1:1000 in PBST containing 1% BSA was added and incubated for 2 h at room temperature. The spots were visualized by adding BCIP/NBT phosphatase substrate (Kirkeguard & Perry Laboratories, Gaithesburg, Md.). Image analysis of ELISA spot assays was performed on a Series 1 Immunospot Image Analyzer (Autoimmun Diagnostika (US) Inc.) customized for analyzing ELISA spots to meet objective criteria for size, chromatic density, shape and color.

The subject of assay [2] is CD4+ LNC from Vα4/Vβ8.2 TCR transgenic mice. The assay is classed as cell-based, mouse. To be noted: CD4+ LNC and spleen cells, NAc 1-11 10 μg/ml, all concentrations used. On the procedure:
The in vitro effect of varying concentration of the CD 28 peptide mimetics on CD4+ lymph node cells and spleen cells from transgenic mice bearing the Vα 4 Vβ8.2 TCR specific for MBP Ac 1-11 was determined.
CD4+ T cells were purified from pooled peripheral lymph nodes (inguinal, axillary, brachial, cervical, popliteal), and mesenteric lymph nodes and spleen of 6–8 wk old Vα4/Vβ8.2 TCR transgenic mice by positive selection. Single cell suspensions were prepared by lympholyte M gradient, washed, counted and incubated with magnetic bead conjugated anti-mouse CD4 (L3T4) (Miltenyi Biotech Corporation) followed by positive selection using magnetic selection columns. Purity of the CD4^+ cells was greater than 90% as assessed by staining with FITC labeled anti-mouseVβ8.2 mAb (Pharmingen). During the selection process, T cells maintain a naïve phenotype with no evidence for T cell activation as measured by proliferation in culture. Purified CD4+ T-cells (5×10^4 cells/well) were cultured together with wild type splenocytes from B10.PL mice as APC's (10^5 cells/well) in RPMI 1640 containing 10% FCS, 25 mM HEPES, 2 mM L-glutamine, 50 U/ml penicillin, 50 μg/ml streptomycin, and 5×10–5 M 2-ME in round-bottom 96-well plates and MBP (40 μg/ml) or MBP NAc1-11 (10 μg/ml) or media only in the presence or absence of synthetic CD28 peptide analogues at different concentrations in triplicate wells for 72 h, including a final 18-h pulse with [^3H] thymidine. Cultures were harvested onto glass-fiber mats using a Skatron harvester (Skatron, Sterling, Va.) and were counted by liquid scintillation on LKB Betaplate (LKB, Rockville, Md.). The means of the triplicate were determined and the results are expressed as delta cpm (mean counts per minute of cultures with Ag-mean counts per minute of cultures with medium alone)±SD.

SMILES strings stand for the structures. Like-named read-outs stand apart in the source and are kept apart here. Square brackets hold non-standard residues; d marks the D form. Peptide text beside a SMILES is read from it.

T1 sequence (P33681 35-242 limits assumed, other chains not shown): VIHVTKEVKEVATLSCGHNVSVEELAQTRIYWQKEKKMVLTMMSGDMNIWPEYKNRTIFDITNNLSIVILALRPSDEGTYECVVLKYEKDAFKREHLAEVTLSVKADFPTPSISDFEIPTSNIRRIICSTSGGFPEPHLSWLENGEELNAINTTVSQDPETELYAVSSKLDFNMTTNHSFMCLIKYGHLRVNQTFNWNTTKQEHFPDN

As for `CC[C@@H](C)[C@@H](NC(C)=O)C(=O)N[C@@H](C(=O)NCC(=O)N[C@H](CC(N)=O)C(=O)N[C@H](CO)C(=O)N[C@H](CCCNC(=N)N)C(=O)N[C@H](CCC(=O)O)C(=O)N[C@H](CC(N)=O)C(=O)N[C@H](CC(=O)O)C(=O)N[C@H](CC(C)C)C(=O)N[C@H](Cc1ccc(O)cc1)C(=O)N1CCC[C@@H]1C(=O)N1CCC[C@@H]1C(=O)N1CCC[C@@H]1C(=O)N[C@H](Cc1ccc(O)cc1)C(=O)N[C@H](CCSC)C(=O)N[C@H](Cc1ccccc1)C(=O)N[C@H](CCC(=O)O)C(=O)N[C@@H](C(=O)N[C@H](CCCCN)C(N)=O)[C@H](C)CC)[C@H](C)O` [RI CD28] (Ac-[dI][dT]G[dN][dS][dR][dE][dN][dD][dL][dY][dP][dP][dP][dY][dM][dF][dE][dI][dK]-NH2), the “maximum response units obtained for binding to CD80-Ig” value on CD80-Ig was 444.2 RU. For the same compound, the kd at CD80-Ig (C 1.00E+03 nM) stood at 0.205 s⁻¹; on CD80-Ig (C 1.50E+03 nM), 0.183 s⁻¹; on CD80-Ig (C 3.00E+03 nM), 0.146 s⁻¹; on CD80-Ig (C 6.00E+03 nM), 0.228 s⁻¹. The kon on CD80-Ig (C 1.00E+03 nM) was determined as 171000 M⁻¹ s⁻¹; at CD80-Ig (C 1.50E+03 nM), 141000 M⁻¹ s⁻¹; on CD80-Ig (C 3.00E+03 nM), 122000 M⁻¹ s⁻¹; on CD80-Ig (C 6.00E+03 nM) it was 112000 M⁻¹ s⁻¹. Further, in assay [1], the “number of IL-2 secreting NAc1-11 responders (in words)” value was “Significant decrease”. Also, in assay [1], the “frequency of IL-2 secreting cells (in words)” value is recorded as “significantly reduced”. Also, in assay [2], the “proliferative response / inhibition of T cell proliferation (in words)” value is “significantly less”.

Turning to `CC[C@H](C)[C@H](NC(=O)[C@@H](NC(=O)CNC(=O)[C@H](CC(N)=O)NC(=O)[C@H](CO)NC(=O)[C@H](CCCNC(=N)N)NC(=O)[C@H](CCC(=O)O)NC(=O)[C@H](CC(N)=O)NC(=O)[C@H](CC(=O)O)NC(=O)[C@H](CC(C)C)NC(=O)[C@H](Cc1ccc(O)cc1)NC(=O)[C@@H]1CCCN1C(=O)[C@@H]1CCCN1C(=O)[C@@H]1CCCN1C(=O)[C@H](Cc1ccc(O)cc1)NC(=O)[C@H](CCSC)NC(=O)[C@H](Cc1ccccc1)NC(=O)[C@H](CCC(=O)O)NC(=O)[C@@H](NC(=O)[C@H](CCCCN)NC(C)=O)[C@@H](C)CC)[C@@H](C)O)C(N)=O` [EL CD28] (Ac-KIEFMYPPPYLDNERSNGTI-NH2), at CD80-Ig, the “maximum response units obtained for binding to CD80-Ig” value was determined as 667.5 RU. In addition, the kd at CD80-Ig (C 1.50E+03 nM) amounted to 0.242 s⁻¹; at CD80-Ig (C 3.00E+03 nM), 0.214 s⁻¹; on CD80-Ig (C 3.75E+02 nM) it was 0.399 s⁻¹; at CD80-Ig (C 6.00E+03 nM) it was 0.273 s⁻¹; at CD80-Ig (C 7.50E+02 nM) it was 0.274 s⁻¹. For the same compound, the kon at CD80-Ig (C 1.50E+03 nM) turned out to be 115000 M⁻¹ s⁻¹; at CD80-Ig (C 3.00E+03 nM), 137000 M⁻¹ s⁻¹; on CD80-Ig (C 3.75E+02 nM), 246000 M⁻¹ s⁻¹; on CD80-Ig (C 6.00E+03 nM), 111000 M⁻¹ s⁻¹; on CD80-Ig (C 7.50E+02 nM), 110000 M⁻¹ s⁻¹. For the same compound, the “number of IL-2 secreting NAc1-11 responders (in words)” value in assay [1] was “Significant decrease”. In addition, in assay [1], the “frequency of IL-2 secreting cells (in words)” value is “significantly reduced”. Further, in assay [2], the “proliferative response / inhibition of T cell proliferation (in words)” value is “significantly less”.

Source of the values: patent publication US7220822B2, “CD28 mimetics for blocking T cell mediated immune reactions” (The Ohio State University, priority 2000, dated 2007).
